Results reported in BindingDB's records for doi:10.1016/s0006-2952(02)01515-0 (Aventis Pharma, 2003).
pKi: −log10 of the molar value.

Legend:
[1] = molecular target: D(2) dopamine receptor (Homo sapiens, UniProt P14416)
[2] = molecular target: D(4) dopamine receptor (Homo sapiens, UniProt P21917)
[3] = molecular target: D(3) dopamine receptor (Homo sapiens, UniProt P35462)
[4] = molecular target: Gamma-aminobutyric acid receptor subunit alpha-1 (Rattus norvegicus, UniProt P62813)
[5] = molecular target: Histamine H1 receptor (Cavia porcellus, UniProt P31389)
[6] = molecular target: Gamma-aminobutyric acid (GABA) B receptor 1 (Rattus norvegicus, UniProt Q6MFX8)
[7] = molecular target: Muscarinic acetylcholine receptor M2 (Homo sapiens, UniProt P08172)
[8] = molecular target: 5-hydroxytryptamine receptor 3A (Mus musculus, UniProt P23979)
[9] = molecular target: 5-hydroxytryptamine receptor 3A (Homo sapiens, UniProt P46098)
[10] = molecular target: Muscarinic acetylcholine receptor M5 (Homo sapiens, UniProt P08912)
[11] = molecular target: Alpha-2C adrenergic receptor (Rattus norvegicus, UniProt P22086)
[12] = molecular target: Histamine H2 receptor (Cavia porcellus, UniProt P47747)
[13] = molecular target: Muscarinic acetylcholine receptor M1 (Homo sapiens, UniProt P11229)
[14] = molecular target: D(1A) dopamine receptor (Homo sapiens, UniProt P21728)
[15] = molecular target: Muscarinic acetylcholine receptor M3 (Homo sapiens, UniProt P20309)
[16] = molecular target: 5-hydroxytryptamine receptor 2C (Homo sapiens, UniProt P28335)
[17] = molecular target: Alpha-1A adrenergic receptor (Rattus norvegicus, UniProt P43140)
[18] = molecular target: Muscarinic acetylcholine receptor M4 (Homo sapiens, UniProt P08173)
[19] = molecular target: 5-hydroxytryptamine receptor 7 (Homo sapiens, UniProt P34969)
[20] = molecular target: 5-hydroxytryptamine receptor 2A (Homo sapiens, UniProt P28223)
[21] = molecular target: Hrh3 protein (Rattus norvegicus, UniProt Q5PPG3)

Sequence of Muscarinic acetylcholine receptor M1 (P11229 whole entry): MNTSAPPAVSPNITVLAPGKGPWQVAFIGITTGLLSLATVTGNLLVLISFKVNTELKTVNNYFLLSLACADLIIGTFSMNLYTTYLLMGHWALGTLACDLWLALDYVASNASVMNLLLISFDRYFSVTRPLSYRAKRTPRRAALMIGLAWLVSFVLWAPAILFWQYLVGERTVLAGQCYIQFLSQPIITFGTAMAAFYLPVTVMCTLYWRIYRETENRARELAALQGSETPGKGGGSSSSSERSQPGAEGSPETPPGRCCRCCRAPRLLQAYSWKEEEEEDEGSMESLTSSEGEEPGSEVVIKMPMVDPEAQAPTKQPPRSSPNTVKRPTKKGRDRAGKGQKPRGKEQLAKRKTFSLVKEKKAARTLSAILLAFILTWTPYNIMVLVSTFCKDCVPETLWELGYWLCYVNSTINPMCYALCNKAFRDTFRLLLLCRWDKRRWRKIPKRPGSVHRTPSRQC
Sequence of D(1A) dopamine receptor (P21728 whole entry): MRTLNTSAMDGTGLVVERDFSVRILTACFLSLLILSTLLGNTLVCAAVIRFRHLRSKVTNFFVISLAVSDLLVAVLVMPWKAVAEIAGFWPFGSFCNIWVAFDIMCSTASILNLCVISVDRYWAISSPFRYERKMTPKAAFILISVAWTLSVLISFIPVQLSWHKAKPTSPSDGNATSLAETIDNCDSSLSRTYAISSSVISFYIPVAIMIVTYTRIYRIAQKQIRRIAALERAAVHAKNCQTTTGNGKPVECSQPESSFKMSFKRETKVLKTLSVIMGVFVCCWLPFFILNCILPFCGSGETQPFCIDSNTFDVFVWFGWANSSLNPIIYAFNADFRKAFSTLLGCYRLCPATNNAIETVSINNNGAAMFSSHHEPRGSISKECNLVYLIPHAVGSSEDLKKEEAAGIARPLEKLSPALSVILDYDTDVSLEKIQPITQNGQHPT
Sequence of Alpha-2C adrenergic receptor (P22086 whole entry): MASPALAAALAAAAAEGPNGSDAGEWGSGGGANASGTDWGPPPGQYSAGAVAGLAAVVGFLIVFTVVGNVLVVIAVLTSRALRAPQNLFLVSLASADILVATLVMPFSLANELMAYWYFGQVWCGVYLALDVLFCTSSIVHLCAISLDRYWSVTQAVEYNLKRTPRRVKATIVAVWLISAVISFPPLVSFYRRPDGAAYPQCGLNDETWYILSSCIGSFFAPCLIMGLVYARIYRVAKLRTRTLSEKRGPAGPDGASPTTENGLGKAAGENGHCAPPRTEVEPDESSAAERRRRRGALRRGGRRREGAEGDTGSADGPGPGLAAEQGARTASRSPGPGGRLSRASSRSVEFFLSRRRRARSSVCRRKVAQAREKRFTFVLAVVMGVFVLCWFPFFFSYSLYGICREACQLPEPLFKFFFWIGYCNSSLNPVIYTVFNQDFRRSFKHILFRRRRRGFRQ
Sequence of Muscarinic acetylcholine receptor M2 (P08172 whole entry): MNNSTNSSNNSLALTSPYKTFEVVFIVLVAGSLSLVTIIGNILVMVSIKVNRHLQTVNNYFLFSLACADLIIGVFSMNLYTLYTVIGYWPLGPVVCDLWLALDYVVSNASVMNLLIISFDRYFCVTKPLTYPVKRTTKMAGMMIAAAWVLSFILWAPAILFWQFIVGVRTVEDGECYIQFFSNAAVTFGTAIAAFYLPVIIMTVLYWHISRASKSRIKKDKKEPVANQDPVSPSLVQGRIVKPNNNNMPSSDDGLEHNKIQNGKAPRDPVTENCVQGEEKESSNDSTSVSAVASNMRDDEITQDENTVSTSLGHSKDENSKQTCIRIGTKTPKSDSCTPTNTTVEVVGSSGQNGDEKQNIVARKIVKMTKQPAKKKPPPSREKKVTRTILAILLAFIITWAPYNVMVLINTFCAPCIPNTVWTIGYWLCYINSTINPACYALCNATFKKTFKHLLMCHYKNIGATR
Sequence of Muscarinic acetylcholine receptor M5 (P08912 whole entry): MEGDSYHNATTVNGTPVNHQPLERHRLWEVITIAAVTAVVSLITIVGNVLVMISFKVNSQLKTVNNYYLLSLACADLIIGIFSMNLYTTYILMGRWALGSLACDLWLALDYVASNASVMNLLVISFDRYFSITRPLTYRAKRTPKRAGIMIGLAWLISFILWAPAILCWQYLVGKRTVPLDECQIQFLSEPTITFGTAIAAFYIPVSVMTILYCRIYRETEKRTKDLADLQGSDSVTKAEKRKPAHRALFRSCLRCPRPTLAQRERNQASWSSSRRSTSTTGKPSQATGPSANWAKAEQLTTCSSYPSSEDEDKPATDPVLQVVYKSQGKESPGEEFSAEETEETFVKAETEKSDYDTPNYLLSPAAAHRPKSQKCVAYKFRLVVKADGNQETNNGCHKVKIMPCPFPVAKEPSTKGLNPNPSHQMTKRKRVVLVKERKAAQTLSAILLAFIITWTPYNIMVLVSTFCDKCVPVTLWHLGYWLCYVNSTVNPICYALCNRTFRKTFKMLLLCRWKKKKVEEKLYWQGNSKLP
Sequence of 5-hydroxytryptamine receptor 3A (Mus musculus, UniProt P23979) (P23979 as listed by the source): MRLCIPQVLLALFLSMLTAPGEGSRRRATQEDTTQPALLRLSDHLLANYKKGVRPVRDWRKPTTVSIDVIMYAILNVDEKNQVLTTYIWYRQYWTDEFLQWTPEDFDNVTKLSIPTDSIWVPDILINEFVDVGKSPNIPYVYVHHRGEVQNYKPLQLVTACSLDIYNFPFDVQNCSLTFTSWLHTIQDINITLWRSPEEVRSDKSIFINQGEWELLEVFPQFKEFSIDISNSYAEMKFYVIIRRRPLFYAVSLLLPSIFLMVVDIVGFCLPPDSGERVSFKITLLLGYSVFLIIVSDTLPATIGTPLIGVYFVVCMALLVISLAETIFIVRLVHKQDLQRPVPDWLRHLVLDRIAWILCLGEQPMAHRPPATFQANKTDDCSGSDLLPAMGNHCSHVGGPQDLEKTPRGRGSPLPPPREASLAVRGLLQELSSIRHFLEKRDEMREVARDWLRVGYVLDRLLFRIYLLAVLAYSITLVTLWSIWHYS
Sequence of Histamine H1 receptor (P31389 whole entry): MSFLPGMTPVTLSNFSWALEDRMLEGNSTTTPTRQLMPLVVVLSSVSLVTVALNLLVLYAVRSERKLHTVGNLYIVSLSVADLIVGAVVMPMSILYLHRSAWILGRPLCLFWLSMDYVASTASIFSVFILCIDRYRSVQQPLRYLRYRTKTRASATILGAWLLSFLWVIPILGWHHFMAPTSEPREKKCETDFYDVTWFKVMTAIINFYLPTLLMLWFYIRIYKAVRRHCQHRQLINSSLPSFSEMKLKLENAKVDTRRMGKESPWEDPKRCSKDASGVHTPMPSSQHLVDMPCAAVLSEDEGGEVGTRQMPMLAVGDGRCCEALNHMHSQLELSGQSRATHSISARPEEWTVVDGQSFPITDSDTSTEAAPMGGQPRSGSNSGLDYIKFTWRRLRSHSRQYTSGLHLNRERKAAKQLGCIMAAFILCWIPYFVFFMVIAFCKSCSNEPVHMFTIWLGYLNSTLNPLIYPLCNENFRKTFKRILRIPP
Sequence of Histamine H2 receptor (P47747 whole entry): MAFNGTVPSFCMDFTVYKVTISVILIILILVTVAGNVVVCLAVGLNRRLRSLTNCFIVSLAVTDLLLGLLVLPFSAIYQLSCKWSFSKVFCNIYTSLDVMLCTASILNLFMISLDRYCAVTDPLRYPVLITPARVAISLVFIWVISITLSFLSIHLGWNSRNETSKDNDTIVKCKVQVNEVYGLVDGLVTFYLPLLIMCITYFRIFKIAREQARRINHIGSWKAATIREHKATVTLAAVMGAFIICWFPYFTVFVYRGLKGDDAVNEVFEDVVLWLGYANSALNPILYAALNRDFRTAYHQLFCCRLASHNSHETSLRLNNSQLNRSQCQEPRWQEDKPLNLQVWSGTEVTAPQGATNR
Sequence of Muscarinic acetylcholine receptor M3 (P20309 whole entry): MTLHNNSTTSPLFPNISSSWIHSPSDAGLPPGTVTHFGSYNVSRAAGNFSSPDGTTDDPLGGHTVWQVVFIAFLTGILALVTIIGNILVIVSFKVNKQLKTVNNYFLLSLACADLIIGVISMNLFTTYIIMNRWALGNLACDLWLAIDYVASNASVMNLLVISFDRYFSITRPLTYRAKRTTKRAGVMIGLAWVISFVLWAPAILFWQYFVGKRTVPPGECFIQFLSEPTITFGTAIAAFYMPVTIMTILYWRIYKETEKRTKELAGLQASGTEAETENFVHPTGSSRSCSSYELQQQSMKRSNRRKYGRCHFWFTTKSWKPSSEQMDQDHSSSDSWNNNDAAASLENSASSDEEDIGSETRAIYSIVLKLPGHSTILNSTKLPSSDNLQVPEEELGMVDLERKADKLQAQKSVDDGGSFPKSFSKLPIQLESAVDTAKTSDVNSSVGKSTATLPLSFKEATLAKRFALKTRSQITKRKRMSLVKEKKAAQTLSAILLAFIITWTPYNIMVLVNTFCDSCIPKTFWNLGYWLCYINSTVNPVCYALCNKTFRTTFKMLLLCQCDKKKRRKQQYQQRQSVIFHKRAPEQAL
Sequence of D(4) dopamine receptor (P21917 whole entry): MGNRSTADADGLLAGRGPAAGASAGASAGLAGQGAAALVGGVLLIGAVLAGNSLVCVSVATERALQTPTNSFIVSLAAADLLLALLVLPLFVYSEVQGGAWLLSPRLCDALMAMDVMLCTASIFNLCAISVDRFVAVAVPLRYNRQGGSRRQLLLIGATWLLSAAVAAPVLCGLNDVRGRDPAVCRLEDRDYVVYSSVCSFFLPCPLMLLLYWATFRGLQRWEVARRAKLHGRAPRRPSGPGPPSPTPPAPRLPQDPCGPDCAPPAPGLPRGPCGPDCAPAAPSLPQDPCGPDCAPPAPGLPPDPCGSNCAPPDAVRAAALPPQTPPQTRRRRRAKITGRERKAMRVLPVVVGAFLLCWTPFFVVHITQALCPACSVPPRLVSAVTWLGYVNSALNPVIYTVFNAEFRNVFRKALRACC

pKi [1]: 8.24
pKi [2]: 8.28
pKi [3]: 8.60
pKi [4]: < 5.00
pKi [5]: 8.03
pKi [6]: < 5.00
pKi [7]: 7.38
pKi [8]: 7.12
pKi [9]: 5.53
pKi [10]: 7.46
pKi [11]: 5.88
pKi [12]: 6.45
pKi [13]: 7.89
pKi [14]: 8.42
pKi [15]: 7.49
pKi [16]: 7.92
pKi [17]: 8.64
pKi [18]: 7.92
pKi [19]: 7.66
pKi [20]: 8.82
pKi [21]: < 5.00
Structure (SMILES): CC(CN(C)C)CN1c2ccccc2Sc2ccc(C#N)cc21 (stereo unspecified) [CAS_62865]
